# Experimental data from patent US11931364B2, “Modulation of the nitric oxide synthase pathway for oral health” (Meharry Medical College, priority 2016, dated 2024).
# System: nitric oxide release in rat tissue
# Assay: Nitric oxide release in rat tissue exposed to hyperglycemia in vitro, with sepiapterin supplementation
# Conditions: hyperglycemia 55 mM, 48 hr incubation, sepiapterin 100 μM, n=4 per group, FIG. 5
# Protocol: FIG. 5. Effect of hyperglycemia (55 mM, 48 hr incubation) and supplementation of sepiapterin (SEP, 100 μM), on nitric oxide release in rat tissue. The bars represent mean f SEM. *p<0.05 non-glycemic (N.G, Control) vs. hyperglycemic (H.G); #p<0.05 N.G vs. SEP, t-test (n=4 in each group). […] Protein expression for DHFR was reduced in diabetic female rats (FIGS. 3A-3B). […] All the above findings correlated well with the impaired saliva secretion and water intake (FIGS. 1A-1B) and e/n NOS activity (FIGS. 3A-3B) as measured by dimerization in SM gland tissue. Therefore, dietary supplementation of sepiapterin improves e/n NOSα dimerization, nNOS activity, NO synthesis and saliva secretion.
structure (smiles),measurement,value
C[C@H](O)C(=O)C1=Nc2c(nc(N)[nH]c2=O)NC1 [sepiapterin],NO release in the tissue exposed to hyperglycemia,improved NO release
